The values below come from article PMC11783601, “Analogue-Sensitive Inhibition of Histone Demethylases Uncovers Member-Specific Function in Ribosomal Protein Synthesis” (Journal of the American Chemical Society, 2025).

Each structure is given as a SMILES string.

The nature of data set [1]: HPLC stability of compound in assay buffer. In kind it is physicochemical. The settings on record: HPLC traces at t=0 hr. and t=5 hr. incubation; integrity confirmed by LC-MS. The protocol: Supplementary Figure S13. HPLC traces of NOL 6 at t=0 hr. (red) and t=5 hr. (blue) incubation
The compound integrity was further
Supplementary Figure S14. MALDI-TOF spectra for demethylase activity of wild type KDM4C
(A) and KDM4C-F187A mutant (B). In each case, topmost panel is assay without the cofactor
2OG (negative control), middle panel is assay with the cofactor (positive control) and the bottom
mutant completely at 50 µM concentration (B). The demethylase activity of F187A mutant is
(1 picture or pasted object on this page, not shown here)

The target of data set [2] is T1, full-length wild type KDM4A (Homo sapiens, UniProt O75164).
T1 construct: Expression of full-length KDM4A-E and their mutants in HEK293T cells; host or cells: HEK293T
T1 sequence (O75164 whole entry): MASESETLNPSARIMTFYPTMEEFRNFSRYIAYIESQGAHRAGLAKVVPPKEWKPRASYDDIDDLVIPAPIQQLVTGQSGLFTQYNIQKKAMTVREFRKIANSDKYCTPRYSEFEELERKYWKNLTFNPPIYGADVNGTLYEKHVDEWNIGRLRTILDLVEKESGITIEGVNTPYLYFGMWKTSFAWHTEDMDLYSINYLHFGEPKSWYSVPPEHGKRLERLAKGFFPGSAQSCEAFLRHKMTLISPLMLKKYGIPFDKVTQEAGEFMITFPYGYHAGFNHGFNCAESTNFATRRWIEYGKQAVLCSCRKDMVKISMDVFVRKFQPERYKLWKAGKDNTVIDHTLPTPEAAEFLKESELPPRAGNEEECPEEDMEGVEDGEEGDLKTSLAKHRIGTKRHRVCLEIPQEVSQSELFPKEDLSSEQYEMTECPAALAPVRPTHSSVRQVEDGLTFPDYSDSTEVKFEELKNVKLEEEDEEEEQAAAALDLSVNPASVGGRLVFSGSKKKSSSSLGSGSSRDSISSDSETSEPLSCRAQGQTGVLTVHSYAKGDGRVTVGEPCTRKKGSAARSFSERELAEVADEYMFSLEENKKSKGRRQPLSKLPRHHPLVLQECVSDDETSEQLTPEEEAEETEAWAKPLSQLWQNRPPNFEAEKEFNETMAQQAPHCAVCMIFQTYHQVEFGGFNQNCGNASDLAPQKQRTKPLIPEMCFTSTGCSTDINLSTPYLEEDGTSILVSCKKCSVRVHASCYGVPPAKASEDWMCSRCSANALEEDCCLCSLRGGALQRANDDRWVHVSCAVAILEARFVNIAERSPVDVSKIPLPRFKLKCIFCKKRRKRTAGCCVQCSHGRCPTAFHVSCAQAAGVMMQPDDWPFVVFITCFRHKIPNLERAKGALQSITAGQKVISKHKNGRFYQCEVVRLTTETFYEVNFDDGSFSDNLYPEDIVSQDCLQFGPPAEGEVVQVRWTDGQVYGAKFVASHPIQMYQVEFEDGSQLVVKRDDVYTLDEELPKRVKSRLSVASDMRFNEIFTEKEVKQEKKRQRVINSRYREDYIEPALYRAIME
As to the kind of experiment: H3K9me3 Western blot of nuclear extracts of transfected HEK293T cells. It counts as cell-based. The settings on record: 10 μM n-octyl IOX1, Western blot. The method, then:
To test the orthogonality of NOL toward wild type KDM4A, HEK293T cells, either nontransfected or transfected with KDM4A, were individually treated with DMSO, 400 μM 6A or 10 μM n-octyl IOX1, a nonspecific inhibitor of 2OG enzymes. […] To further probe for off-target effects of 6 on endogenous 2OG enzymes, HEK293T cells were cultured with DMSO or 400 μM 6A and examined for several postsynthetic modifications catalyzed by these dioxygenases. Key trimethylated lysine marks on extracted histone were analyzed by Western blot using corresponding antibodies (Figure S31). […] Similarly, no change in prolyl hydroxylation was detected when cellular extracts were subjected to the pan hydroxyproline antibody.
KDM4A mammalian expression plasmid in CMV vector was purchased from Addgene (plasmid #24180). KDM4B mammalian expression plasmid in CMV vector was purchased from Addgene (plasmid #24181). KDM4C mammalian expression plasmid in CMV vector was purchased from Addgene (plasmid #24214). KDM4D mammalian expression plasmid in pReciever vector was purchased from Genecopoia (EX-Z0917-M06.) KDME mammalian expression plasmid in pRP-EXP was designed from Vector Builder. […]
20. Quantification of fixed-cell imaging data
TIF images obtained from confocal microscopy experiments were quantified in ImageJ. […]
Background: In western blotting, separated proteins are transferred to a membrane and probed.

Regarding `CC(C)CC(NC(=O)C(=O)O)C(=O)O` (stereo not drawn) [compound 6, N-oxalyl leucine], the “stability of the compound in assay buffer” value in data set [1] is listed as “confirm the stability”. For `CCCCCCCCOC(=O)c1ccc(O)c2ncccc12` [n-octyl IOX1], the entries for the “inhibition of wild type KDM4A H3K9me3 demethylation” value in data set [2] and in data set [2] (listed as IOX1) were “Inhibition” and “strongly inhibited”, respectively.
